# Assays:
# Assay in all cases: relative viability (nuclei count vs DMSO), 5 days (fraction); higher = more cells survive
# [1] = tested on: LCLC-103H
# How it was run: (§1)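 Cells from lung cancer lines were seeded into 1536-well plates and, one day later, dosed by pin tool. Treatments were either a single drug or a fixed dose of an anchor drug with five library-drug doses (not always all listed) in √10 steps. After 5 days, nuclei were stained in a one-step fixation (final 0.05% Triton X-100, 1% formaldehyde, 1 ug/ml Hoechst) and counted on 4× images, and relative viability is the treated-to-vehicle nuclei ratio, as the median of duplicate plates.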
# [2] = tested on: NCI-H661
# How it was run: as §1
# [3] = tested on: NCI-H1915
# How it was run: as §1
# [4] = tested on: NCI-H322M
# How it was run: as §1
# [5] = tested on: NCI-H460
# How it was run: as §1
# [6] = tested on: NCI-H1755
# How it was run: as §1
# [7] = tested on: NCI-H727
# How it was run: as §1
# [8] = tested on: PC-14
# How it was run: as §1
# [9] = tested on: NCI-H441
# How it was run: as §1
# [10] = tested on: NCI-H1651
# How it was run: as §1
# [11] = tested on: NCI-H1355
# How it was run: as §1
# [12] = tested on: SW 900
# How it was run: as §1
# [13] = tested on: RERF-LC-KJ
# How it was run: as §1
# [14] = tested on: NCI-H520
# How it was run: as §1
# [15] = tested on: NCI-H3122
# How it was run: as §1
# [16] = tested on: NCI-H2347
# How it was run: as §1
# [17] = tested on: LXF-289
# How it was run: as §1
# [18] = tested on: NCI-H1563
# How it was run: as §1
# [19] = tested on: NCI-H596
# How it was run: as §1
# [20] = tested on: SK-MES-1
# How it was run: as §1
structure (smiles),measurement,setting,value
O=c1cc(-c2cccc3c2Sc2ccccc2S3)oc(N2CCOCC2)c1 + COc1cc2c(Oc3ccc(NC(=O)C4(C(=O)Nc5ccc(F)cc5)CC4)cc3F)ccnc2cc1OCCCN1CCOCC1 [Foretinib] (partner 0.25 µM),relative viability,[1]; first compound 0.08 µM,0.721
same,relative viability,[1]; first compound 0.253 µM,0.831
same,relative viability,[1]; first compound 0.8 µM,0.794
same,relative viability,[1]; first compound 2.53 µM,0.71
same,relative viability,[1]; first compound 8 µM,0.712
same,relative viability,[2]; first compound 0.08 µM,1.02
same,relative viability,[2]; first compound 0.253 µM,1.02
same,relative viability,[2]; first compound 0.8 µM,0.92
same,relative viability,[2]; first compound 2.53 µM,0.952
same,relative viability,[2]; first compound 8 µM,1
same,relative viability,[3]; first compound 0.08 µM,1.21
same,relative viability,[3]; first compound 0.253 µM,1.2
same,relative viability,[3]; first compound 0.8 µM,1.08
same,relative viability,[3]; first compound 2.53 µM,1.06
same,relative viability,[3]; first compound 8 µM,1.11
same,relative viability,[4]; first compound 0.08 µM,0.896
same,relative viability,[4]; first compound 0.253 µM,1
same,relative viability,[4]; first compound 0.8 µM,0.885
same,relative viability,[4]; first compound 2.53 µM,0.858
same,relative viability,[4]; first compound 8 µM,0.972
same,relative viability,[5]; first compound 0.08 µM,1.04
same,relative viability,[5]; first compound 0.253 µM,1.01
same,relative viability,[5]; first compound 0.8 µM,0.963
same,relative viability,[5]; first compound 2.53 µM,1.02
same,relative viability,[5]; first compound 8 µM,1.13
same,relative viability,[6]; first compound 0.08 µM,0.861
same,relative viability,[6]; first compound 0.253 µM,0.976
same,relative viability,[6]; first compound 0.8 µM,0.913
same,relative viability,[6]; first compound 2.53 µM,0.899
same,relative viability,[6]; first compound 8 µM,0.943
same,relative viability,[7]; first compound 0.08 µM,0.552
same,relative viability,[7]; first compound 0.253 µM,0.867
same,relative viability,[7]; first compound 0.8 µM,0.904
same,relative viability,[7]; first compound 2.53 µM,0.842
same,relative viability,[7]; first compound 8 µM,1.21
same,relative viability,[8]; first compound 0.08 µM,0.95
same,relative viability,[8]; first compound 0.253 µM,1.29
same,relative viability,[8]; first compound 0.8 µM,0.924
same,relative viability,[8]; first compound 2.53 µM,0.961
same,relative viability,[8]; first compound 8 µM,0.966
same,relative viability,[9]; first compound 0.08 µM,0.512
same,relative viability,[9]; first compound 0.253 µM,1.09
same,relative viability,[9]; first compound 0.8 µM,1.35
same,relative viability,[9]; first compound 2.53 µM,0.882
same,relative viability,[9]; first compound 8 µM,0.98
same,relative viability,[10]; first compound 0.08 µM,0.798
same,relative viability,[10]; first compound 0.253 µM,0.909
same,relative viability,[10]; first compound 0.8 µM,0.861
same,relative viability,[10]; first compound 2.53 µM,0.754
same,relative viability,[10]; first compound 8 µM,0.979
same,relative viability,[11]; first compound 0.08 µM,0.999
same,relative viability,[11]; first compound 0.253 µM,1.12
same,relative viability,[11]; first compound 0.8 µM,0.861
same,relative viability,[11]; first compound 2.53 µM,0.977
same,relative viability,[11]; first compound 8 µM,0.926
same,relative viability,[12]; first compound 0.08 µM,0.772
same,relative viability,[12]; first compound 0.253 µM,1.27
same,relative viability,[12]; first compound 0.8 µM,1.05
same,relative viability,[12]; first compound 2.53 µM,0.723
same,relative viability,[12]; first compound 8 µM,0.648
same,relative viability,[13]; first compound 0.08 µM,0.836
same,relative viability,[13]; first compound 0.253 µM,0.952
same,relative viability,[13]; first compound 0.8 µM,0.745
same,relative viability,[13]; first compound 2.53 µM,0.995
same,relative viability,[13]; first compound 8 µM,0.792
same,relative viability,[14]; first compound 0.08 µM,0.786
same,relative viability,[14]; first compound 0.253 µM,0.885
same,relative viability,[14]; first compound 0.8 µM,0.835
same,relative viability,[14]; first compound 2.53 µM,0.779
same,relative viability,[14]; first compound 8 µM,0.985
same,relative viability,[15]; first compound 0.08 µM,0.789
same,relative viability,[15]; first compound 0.253 µM,1.01
same,relative viability,[15]; first compound 0.8 µM,1.02
same,relative viability,[15]; first compound 2.53 µM,0.986
same,relative viability,[15]; first compound 8 µM,1.01
same,relative viability,[16]; first compound 0.08 µM,0.903
same,relative viability,[16]; first compound 0.253 µM,0.841
same,relative viability,[16]; first compound 0.8 µM,0.682
same,relative viability,[16]; first compound 2.53 µM,0.679
same,relative viability,[16]; first compound 8 µM,0.892
same,relative viability,[17]; first compound 0.08 µM,0.935
same,relative viability,[17]; first compound 0.253 µM,1.12
same,relative viability,[17]; first compound 0.8 µM,0.974
same,relative viability,[17]; first compound 2.53 µM,1.02
same,relative viability,[17]; first compound 8 µM,1.1
same,relative viability,[18]; first compound 0.08 µM,0.922
same,relative viability,[18]; first compound 0.253 µM,0.895
same,relative viability,[18]; first compound 0.8 µM,0.868
same,relative viability,[18]; first compound 2.53 µM,0.89
same,relative viability,[18]; first compound 8 µM,0.91
same,relative viability,[19]; first compound 0.08 µM,0.783
same,relative viability,[19]; first compound 0.253 µM,0.907
same,relative viability,[19]; first compound 0.8 µM,0.969
same,relative viability,[19]; first compound 2.53 µM,0.789
same,relative viability,[19]; first compound 8 µM,0.848
same,relative viability,[20]; first compound 0.08 µM,0.952
same,relative viability,[20]; first compound 0.253 µM,1.13
same,relative viability,[20]; first compound 0.8 µM,0.645
same,relative viability,[20]; first compound 2.53 µM,0.611
same,relative viability,[20]; first compound 8 µM,0.775

# From the supplement of paper PMC10307832
